# Assay results published in patent US7803930B2, “Antisense modulation of apolipoprotein B-expression” (Isis Pharmaceuticals, Inc., priority 2002, dated 2010).
# In the oligonucleotide strings, read from the 5' end, every base follows the letter of its sugar. An asterisk marks phosphorothioate; unmarked linkages are phosphodiester. Other units and linkages are bracketed, terminal groups are in braces. A string of capitals states the bases alone. e = 2'-O-(2-methoxyethyl) (MOE); [5mC] = 5-methylcytosine; d = 2'-deoxy (DNA)
# Test system: human apolipoprotein B mRNA
# Assay: Inhibition of human apolipoprotein B mRNA levels in HepG2 cells, quantitative real-time PCR
# Assay type: cell-based
# Conditions: HepG2 cells treated with 150 nM of compound; averages from two experiments; quantitative real-time PCR
# Procedure, shortened: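 Apolipoprotein B transcript was quantified by one-step TaqMan RT-PCR, normalized to GAPDH or RiboGreen RNA, and expressed as percent inhibition against an untreated-sample standard curve. HepG2 cells were harvested 16-24 h after oligonucleotide exposure, which was delivered with 3.75 μg/mL Lipofectin over 4-7 h at 80% confluency.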
row,Substance,% INHIB (inhibition of human apolipoprotein B mRNA levels) [%]
1,301217 (antisense eA*eG*eA*e[5mC]*eT*d[5mC]*d[5mC]*dA*dT*dT*dT*dA*dT*dT*dT*eG*eT*eT*e[5mC]*e[5mC]) [compound 301217],81

# Same assay, conditions: HepG2 cells; human apolipoprotein B mRNA; oligonucleotides targeting genomic sequence SEQ ID NO 334; averages from two experiments
row,Substance,% INHIB [%]
1,301186 (antisense e[5mC]*e[5mC]*eT*eT*e[5mC]*dT*dT*dT*dA*d[5mC]*d[5mC]*dT*dT*dA*dG*eG*eT*eG*eG*e[5mC]) [compound 301186],37
2,301187 (antisense eG*e[5mC]*eT*e[5mC]*eT*d[5mC]*dT*d[5mC]*dT*dG*d[5mC]*d[5mC]*dA*d[5mC]*dT*e[5mC]*eT*eG*eA*eT) [compound 301187],47
3,301188 (antisense eA*eA*e[5mC]*eT*eT*d[5mC]*dT*dA*dA*dA*dG*d[5mC]*d[5mC]*dA*dA*e[5mC]*eA*eT*eT*e[5mC]) [compound 301188],27
4,301189 (antisense eT*eG*eT*eG*eT*d[5mC]*dA*d[5mC]*dA*dA*d[5mC]*dT*dA*dT*dG*eG*eT*eA*eA*eA) [compound 301189],63
5,301190 (antisense eA*eG*eA*e[5mC]*eA*d[5mC]*dA*dT*dA*d[5mC]*d[5mC]*dA*dT*dA*dA*eT*eG*e[5mC]*e[5mC]*eA) [compound 301190],22
6,301191 (antisense eT*eT*e[5mC]*eT*e[5mC]*dT*dT*d[5mC]*dA*dT*d[5mC]*dT*dG*dA*dA*eA*eA*eT*eA*e[5mC]) [compound 301191],21
7,301192 (antisense eT*eG*eA*eG*eG*dA*dT*dG*dT*dA*dA*dT*dT*dA*dG*e[5mC]*eA*e[5mC]*eT*eT) [compound 301192],27
8,301193 (antisense eA*eG*e[5mC]*eT*e[5mC]*dA*dT*dT*dG*d[5mC]*d[5mC]*dT*dA*d[5mC]*dA*eA*eA*eA*eT*eG) [compound 301193],31
9,301194 (antisense eG*eT*eT*e[5mC]*eT*d[5mC]*dA*dT*dG*dT*dT*dT*dA*d[5mC]*dT*eA*eA*eT*eG*e[5mC]) [compound 301194],40
10,301195 (antisense eG*eA*eA*eT*eT*dG*dA*dG*dA*d[5mC]*dA*dA*d[5mC]*dT*dT*eG*eA*eT*eT*eT) [compound 301195],26
11,301196 (antisense e[5mC]*e[5mC]*eG*eG*e[5mC]*d[5mC]*dA*dT*d[5mC]*dG*d[5mC]*dT*dG*dA*dA*eA*eT*eG*eA*eA) [compound 301196],54
12,301197 (antisense e[5mC]*eA*eT*eA*eG*d[5mC]*dT*d[5mC]*dA*d[5mC]*d[5mC]*dT*dT*dG*d[5mC]*eA*e[5mC]*eA*eT*eT) [compound 301197],28
13,301198 (antisense e[5mC]*eG*eG*eT*eG*d[5mC]*dA*d[5mC]*d[5mC]*d[5mC]*dT*dT*dT*dA*d[5mC]*e[5mC]*eT*eG*eA*eG) [compound 301198],28
14,301199 (antisense eT*e[5mC]*eT*e[5mC]*e[5mC]*dA*dG*dA*dT*d[5mC]*d[5mC]*dT*dA*dA*d[5mC]*eA*eT*eA*eA*eA) [compound 301199],19
15,301200 (antisense eT*eT*eG*eA*eA*dT*dG*dA*d[5mC]*dA*d[5mC]*dT*dA*dG*dA*eT*eT*eT*eT*e[5mC]) [compound 301200],37
16,301201 (antisense eA*eA*eA*eA*eT*d[5mC]*d[5mC]*dA*dT*dT*dT*dT*d[5mC]*dT*dT*eT*eA*eA*eA*eG) [compound 301201],12

row,Substance,% INHIB [%]
1,301202 (antisense e[5mC]*eA*eG*e[5mC]*eT*d[5mC]*dA*d[5mC]*dA*d[5mC]*dT*dT*dA*dT*dT*eT*eT*eA*eA*eA) [compound 301202],7
2,301203 (antisense eG*eT*eT*e[5mC]*e[5mC]*d[5mC]*dA*dA*dA*dA*d[5mC]*dT*dG*dT*dA*eT*eA*eG*eG*eA) [compound 301203],36
3,301204 (antisense eA*eG*e[5mC]*eT*e[5mC]*d[5mC]*dA*dT*dA*d[5mC]*dT*dG*dA*dA*dG*eT*e[5mC]*e[5mC]*eT*eT) [compound 301204],37
4,301205 (antisense e[5mC]*eA*eA*eT*eT*d[5mC]*dA*dA*dT*dA*dA*dA*dA*dG*d[5mC]*eT*e[5mC]*e[5mC]*eA*eT) [compound 301205],31
5,301206 (antisense eG*eT*eT*eT*eT*d[5mC]*dA*dA*dA*dA*dG*dG*dT*dA*dT*eA*eA*eG*eG*eT) [compound 301206],28
6,301207 (antisense eT*eT*e[5mC]*e[5mC]*e[5mC]*dA*dT*dT*d[5mC]*d[5mC]*d[5mC]*dT*dG*dA*dA*eA*eG*e[5mC]*eA*eG) [compound 301207],13
7,301208 (antisense eT*eG*eG*eT*eA*dT*dT*dT*dA*d[5mC]*d[5mC]*dT*dG*dA*dG*eG*eG*e[5mC]*eT*eG) [compound 301208],21
8,301209 (antisense eA*eT*eA*eA*eA*dT*dA*dA*dT*dA*dG*dT*dG*d[5mC]*dT*eG*eA*eT*eG*eG) [compound 301209],39
9,301210 (antisense e[5mC]*eT*eA*eT*eG*dG*d[5mC]*dT*dG*dA*dG*d[5mC]*dT*dT*dG*e[5mC]*e[5mC]*eT*eA*eT) [compound 301210],33
10,301211 (antisense e[5mC]*eT*e[5mC]*eT*e[5mC]*dT*dG*dA*dA*dA*dA*dA*dT*dA*dT*eA*e[5mC]*e[5mC]*e[5mC]*eT) [compound 301211],17
11,301212 (antisense eT*eT*eG*eA*eT*dG*dT*dA*dT*d[5mC]*dT*d[5mC]*dA*dT*d[5mC]*eT*eA*eG*e[5mC]*eA) [compound 301212],41
12,301213 (antisense eT*eA*eG*eA*eA*d[5mC]*d[5mC]*dA*dT*dG*dT*dT*dT*dG*dG*eT*e[5mC]*eT*eT*e[5mC]) [compound 301213],35
13,301214 (antisense eT*eT*eT*e[5mC]*eT*d[5mC]*dT*dT*dT*dA*dT*d[5mC]*dA*d[5mC]*dA*eT*eG*e[5mC]*e[5mC]*e[5mC]) [compound 301214],29
14,301215 (antisense eT*eA*eT*eA*eG*dT*dA*d[5mC]*dA*d[5mC]*dT*dA*dA*dA*dA*e[5mC]*eT*eT*e[5mC]*eA) [compound 301215],1
15,301216 (antisense e[5mC]*eT*eG*eG*eA*dG*dA*dG*dG*dA*d[5mC]*dT*dA*dA*dA*e[5mC]*eA*eG*eA*eG) [compound 301216],49

# Same assay, conditions: Table 11 gene walk; HepG2 cells, 50 nM; averages from two experiments
row,Substance,% INHIB 50 nm [%]
1,308589 (antisense e[5mC]*eT*eT*e[5mC]*eT*dG*d[5mC]*dT*dT*dG*dA*dG*dT*dT*dA*e[5mC]*eA*eA*eA*e[5mC]) [compound 308589],20
2,308590 (antisense eA*e[5mC]*e[5mC]*eT*eT*d[5mC]*dT*dG*d[5mC]*dT*dT*dG*dA*dG*dT*eT*eA*e[5mC]*eA*eA) [compound 308590],26
3,308591 (antisense eG*e[5mC]*eA*e[5mC]*e[5mC]*dT*dT*d[5mC]*dT*dG*d[5mC]*dT*dT*dG*dA*eG*eT*eT*eA*e[5mC]) [compound 308591],76
4,308592 (antisense eT*e[5mC]*eG*e[5mC]*eA*d[5mC]*d[5mC]*dT*dT*d[5mC]*dT*dG*d[5mC]*dT*dT*eG*eA*eG*eT*eT) [compound 308592],49
5,308593 (antisense e[5mC]*eT*eT*e[5mC]*eG*d[5mC]*dA*d[5mC]*d[5mC]*dT*dT*d[5mC]*dT*dG*d[5mC]*eT*eT*eG*eA*eG) [compound 308593],41

# Same assay, conditions: Table 11 gene walk; HepG2 cells, 150 nM; averages from two experiments
row,Substance,% INHIB 150 nm [%]
1,308589 (antisense e[5mC]*eT*eT*e[5mC]*eT*dG*d[5mC]*dT*dT*dG*dA*dG*dT*dT*dA*e[5mC]*eA*eA*eA*e[5mC]) [compound 308589],94
2,308590 (antisense eA*e[5mC]*e[5mC]*eT*eT*d[5mC]*dT*dG*d[5mC]*dT*dT*dG*dA*dG*dT*eT*eA*e[5mC]*eA*eA) [compound 308590],98
3,308591 (antisense eG*e[5mC]*eA*e[5mC]*e[5mC]*dT*dT*d[5mC]*dT*dG*d[5mC]*dT*dT*dG*dA*eG*eT*eT*eA*e[5mC]) [compound 308591],92
4,308592 (antisense eT*e[5mC]*eG*e[5mC]*eA*d[5mC]*d[5mC]*dT*dT*d[5mC]*dT*dG*d[5mC]*dT*dT*eG*eA*eG*eT*eT) [compound 308592],96
5,308593 (antisense e[5mC]*eT*eT*e[5mC]*eG*d[5mC]*dA*d[5mC]*d[5mC]*dT*dT*d[5mC]*dT*dG*d[5mC]*eT*eT*eG*eA*eG) [compound 308593],80

# Same assay, conditions: Table 15; HepG2 cells, 150 nM; averages from two experiments
row,Substance,% INHIB [%]
1,301218 (antisense eA*e[5mC]*eA*eT*eT*dT*dT*dA*dT*d[5mC]*dA*dA*dT*dG*d[5mC]*e[5mC]*e[5mC]*eT*e[5mC]*eG) [compound 301218],23
2,301219 (antisense eG*e[5mC]*e[5mC]*eA*eG*dA*dA*d[5mC]*dA*dT*dT*dT*dT*dA*dT*e[5mC]*eA*eA*eT*eG) [compound 301219],35
3,301220 (antisense eA*eG*eA*eG*eG*dT*dT*dT*dT*dG*d[5mC]*dT*dG*dT*dG*e[5mC]*e[5mC]*eA*eG*eA) [compound 301220],51
4,301221 (antisense e[5mC]*eT*eA*eG*eA*dG*dG*dT*dT*dT*dT*dG*d[5mC]*dT*dG*eT*eG*e[5mC]*e[5mC]*eA) [compound 301221],61
5,301222 (antisense eT*e[5mC]*eT*eA*eG*dA*dG*dG*dT*dT*dT*dT*dG*d[5mC]*dT*eG*eT*eG*e[5mC]*e[5mC]) [compound 301222],14
6,301223 (antisense eA*eA*eT*e[5mC]*eA*d[5mC]*dA*d[5mC]*dT*dA*dT*dG*dT*dG*dT*eT*e[5mC]*eT*eA*eG) [compound 301223],26
7,301224 (antisense eA*eA*eA*eT*e[5mC]*dA*d[5mC]*dA*d[5mC]*dT*dA*dT*dG*dT*dG*eT*eT*e[5mC]*eT*eA) [compound 301224],33
8,301225 (antisense eT*eA*eA*eA*eT*d[5mC]*dA*d[5mC]*dA*d[5mC]*dT*dA*dT*dG*dT*eG*eT*eT*e[5mC]*eT) [compound 301225],3
9,301226 (antisense e[5mC]*eT*eT*eA*eA*dA*dT*d[5mC]*dA*d[5mC]*dA*d[5mC]*dT*dA*dT*eG*eT*eG*eT*eT) [compound 301226],39
10,301227 (antisense eT*eA*eT*eT*e[5mC]*dT*dG*dT*dT*dA*d[5mC]*dT*dT*dA*dA*eA*eT*e[5mC]*eA*e[5mC]) [compound 301227],23
